Read-outs that look alike come from different tables or passages of the source. Values belong to the molecule of their own block, whether it stands above or below them. Peptide text beside a SMILES is read from it.
Tests used:
ACE [1] = target: T1, ACE (Oryctolagus cuniculus, UniProt P12822); assay: In vitro assay of ACE inhibitory activity (HHL substrate, HPLC of hippuric acid); assay type: biochemical, rabbit; conditions: for inhibition at 86.57 µM: 86.57 μmol/L; for inhibition at 86.57 µM / inhibition at 173.13 µM / inhibition at 346.26 µM / inhibition at 692.52 µM / inhibition at 2770.08 µM: read-out: ACE inhibitory activities (%); for inhibition at 173.13 µM: 173.13 μmol/L; for inhibition at 346.26 µM: 346.26 μmol/L; for inhibition at 692.52 µM: 692.52 μmol/L; for inhibition at 2770.08 µM: 2770.08 μmol/L
T1 construct: ACE (1U, derived from rabbit lung, CAS 207386-83-2); purchased Sigma-Aldrich Co. (St. Louis, MO, USA); host or cells: rabbit lung
T1 sequence (P12822 34-1310): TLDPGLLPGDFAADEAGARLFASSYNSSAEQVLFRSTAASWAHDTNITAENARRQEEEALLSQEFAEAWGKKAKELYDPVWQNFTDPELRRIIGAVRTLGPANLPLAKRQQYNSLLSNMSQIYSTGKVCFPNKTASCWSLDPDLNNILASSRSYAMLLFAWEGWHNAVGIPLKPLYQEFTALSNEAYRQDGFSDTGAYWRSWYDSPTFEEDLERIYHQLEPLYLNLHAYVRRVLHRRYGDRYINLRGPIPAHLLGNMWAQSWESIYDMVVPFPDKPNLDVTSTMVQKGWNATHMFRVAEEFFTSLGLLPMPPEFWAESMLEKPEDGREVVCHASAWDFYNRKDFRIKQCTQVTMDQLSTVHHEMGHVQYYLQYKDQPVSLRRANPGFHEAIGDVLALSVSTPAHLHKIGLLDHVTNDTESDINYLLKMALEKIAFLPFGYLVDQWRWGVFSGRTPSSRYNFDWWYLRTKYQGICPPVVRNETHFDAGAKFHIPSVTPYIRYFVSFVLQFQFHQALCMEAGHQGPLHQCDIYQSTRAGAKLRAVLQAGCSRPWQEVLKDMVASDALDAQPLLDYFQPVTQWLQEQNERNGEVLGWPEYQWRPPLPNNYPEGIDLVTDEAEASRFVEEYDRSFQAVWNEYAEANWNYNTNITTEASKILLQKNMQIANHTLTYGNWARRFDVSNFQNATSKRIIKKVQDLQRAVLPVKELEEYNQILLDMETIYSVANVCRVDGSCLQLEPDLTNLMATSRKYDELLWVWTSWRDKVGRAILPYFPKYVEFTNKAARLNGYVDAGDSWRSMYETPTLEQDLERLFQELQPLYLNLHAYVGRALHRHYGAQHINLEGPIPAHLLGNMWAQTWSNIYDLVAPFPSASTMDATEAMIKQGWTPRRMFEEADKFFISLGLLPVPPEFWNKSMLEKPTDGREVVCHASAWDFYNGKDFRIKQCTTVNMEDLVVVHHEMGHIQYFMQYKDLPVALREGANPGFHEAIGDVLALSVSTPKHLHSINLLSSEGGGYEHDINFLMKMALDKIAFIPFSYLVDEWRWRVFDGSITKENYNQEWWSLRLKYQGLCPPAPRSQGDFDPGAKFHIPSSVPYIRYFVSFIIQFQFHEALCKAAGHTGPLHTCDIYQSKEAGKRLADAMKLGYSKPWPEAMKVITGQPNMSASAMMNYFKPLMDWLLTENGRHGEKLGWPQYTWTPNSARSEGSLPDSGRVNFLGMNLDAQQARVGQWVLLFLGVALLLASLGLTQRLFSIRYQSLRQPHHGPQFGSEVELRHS
Method: WSPM prepared in our previous work (Sun et al. [2022]) and stored at − 20 °C after freeze-drying was used for this study. ACE (1U, derived from rabbit lung, CAS […]), Hippuryl-L-histidyl-L-leucine (HHL, CAS […]), and hippuric acid (HA, CAS 495-69-2) were obtained from Sigma-Aldrich Co. (St. Louis, MO, USA). The reagents used for HPLC analysis were all HPLC grade, and all other reagents used were analytical grade. The amounts of each protein were quantified using the BCA Protein Assay Kit (Bio-Rad, USA). All the protein samples were packed separately and stored at − 80 °C.
In vitro assay of ACE inhibitory activities of the selected peptides ACE inhibitory activity was evaluated in vitro according to previous methods with some modifications (Liao et al. [2018]; Xie et al. [2022]). All of the assays were carried out in 0.1 mol/L sodium borate buffer (containing 0.3 mol/L NaCl at pH 8.3). For each peptide of interest, 40 µL ACE solution (100 mU/mL) was pre-incubated with the peptide (60 µL) at 37 °C for 10 min. Next, 40 µL HHL solution (5.40 mmol/L) was added to the solution at 37 °C, and the reaction was allowed to proceed for 15 min at 37 °C. Finally, 60 µL 1 mol/L HCl was added to terminate the reaction. A borate buffer only control processed using the above procedure was also included for use as a blank. To quantify the amount of HA (hippuric acid) generated, 20 µL of reaction solution (pre-filtered using a 0.45 µm microporous membrane) was analyzed by HPLC (Waters e2695, Milford, USA) on a C18 column (150 × 4.6 mm, 5 µm; ThermoFisher Scientific, USA). The run conditions were as follows: mobile phase, methanol/water/phosphoric acid solution (15:84.9:0.1, V/V/V); flow rate, 1.0 mL/min; UV detection wavelength, 228 nm. All experiments were conducted in triplicate. ACE inhibitory activity was calculated according to the following equation:1 ACE inhibitory activity\%=B-A/B×100\% where A represents the peak area of HA in the sample, and B represents the peak area of HA in the blank.

ACE [2] = conditions: cited from earlier work
Method: The kinetics of IEWEF inhibition of ACE were determined by Lineweaver–Burk plot (Fig. 1). […] We speculate that IEWEF interacts with the non-active domain of ACE to form an enzyme-inhibitor complex even in the presence of substrate (Xie et al. [2022]). A number of non-competitive ACE inhibitory peptides have been reported in recent years, including GVSLPEW, GYGGVSLPEW, and VGINYW from α-lactalbumin (W ...

ACE [3] = conditions: at 0.5 mg/mL; ref Girgih et al. [2014]; cited from earlier work
Method: This is within the range (0.3 ~ 1000.0 µM) known to reduce blood pressure (Chen et al. [2022]). There are several reported ACE inhibitory peptides similar to IEWEF in their amino acid compositions, including IE, EW, IEW, EF, LEF and IEEAF. The peptides IE and EW are both ACE inhibitory peptides isolated from milk hydrolysates, although their IC50 values have not been reported thus far (van Platerink et al. [2008]).

[4] = from α-lactalbumin, ref Wei et al. [2022]
[5] = from Carapax Trionycis, ref Liao et al. [2018]

inhibition at 86.57 µM (ACE [1]; replicate 1): 58.4%
inhibition at 86.57 µM (ACE [1]; replicate 2): 57.8%
inhibition at 86.57 µM (ACE [1]; replicate 3): 57.9%
inhibition at 173.13 µM (ACE [1]; replicate 1): 65.3%
inhibition at 173.13 µM (ACE [1]; replicate 2): 59.3%
inhibition at 173.13 µM (ACE [1]; replicate 3): 65%
inhibition at 346.26 µM (ACE [1]; replicate 1): 72.2%
inhibition at 346.26 µM (ACE [1]; replicate 2): 69.3%
inhibition at 346.26 µM (ACE [1]; replicate 3): 70.5%
inhibition at 692.52 µM (ACE [1]; replicate 1): 66.8%
inhibition at 692.52 µM (ACE [1]; replicate 2): 74.4%
inhibition at 692.52 µM (ACE [1]; replicate 3): 74.5%
inhibition at 2770.08 µM (ACE [1]; replicate 1): 91.2%
inhibition at 2770.08 µM (ACE [1]; replicate 2): 91%
inhibition at 2770.08 µM (ACE [1]; replicate 3): 91%
IC50 (ACE [1]; ACE 100 mU/mL from rabbit lung, HHL 5.40 mmol/L, 0.1 mol/L sodium borate buffer with 0.3 mol/L NaCl pH 8.3, 10 min pre-incubation, 15 min at 37 °C, HPLC-UV 228 nm, mean ± SD, n = 3, read-out: IC50 value against ACE): 41.3 µM
Molecule: CC[C@H](C)[C@H](N)C(=O)N[C@@H](CCC(=O)O)C(=O)N[C@@H](Cc1c[nH]c2ccccc12)C(=O)N[C@@H](CCC(=O)O)C(=O)N[C@@H](Cc1ccccc1)C(=O)O [IEWEF, Ile-Glu-Trp-Glu-Phe] (H-IEWEF-OH)

Molecule: GVSLPEW
Inhibition mode (ACE [2]; [4]): non-competitive

Molecule: GYGGVSLPEW
Inhibition mode (ACE [2]; [4]): non-competitive

Molecule: IEEAF
Inhibitory activity against ACE (ACE [3]): around 40%

Molecule: KHMFK
Inhibition mode (ACE [2]; [5]): non-competitive

Molecule: KIGSRSRFEVT
Inhibition mode (ACE [2]; from the shiitake mushroom, ref Paisansak et al. [2021]): non-competitive

Molecule: KRER
Inhibition mode (ACE [2]; [5]): non-competitive

Molecule: LLYQEPLGPVR
Inhibition mode (ACE [2]; from casein hydrolysate, ref Liu et al. [2020]): non-competitive

Molecule: PPLLFAAL
Inhibition mode (ACE [2]; from Takifugu flavidus, ref Su et al. [2021]): non-competitive

Molecule: VGINYW
Inhibition mode (ACE [2]; [4]): non-competitive

Molecule: WGAP
Inhibition mode (ACE [2]; from rabbit meat, ref Chen et al. [2021]): non-competitive
